Source: patent US20220236254A1, “BITTER TASTE RECEPTOR BLOCKERS AND METHODS OF THEIR IDENTIFICATION” (Firmenich Incorporated, priority 2019, published 2022)
Blank lines part the entries; values can stand above or below the molecule they belong to.

Legend:
Type in all cases: cell-based
[1] = biological target: T1, polypeptide identified herein as SEQ ID NO: 2 (hT2R44) (Homo sapiens, UniProt P59541, F252L); assay: Bitterness antagonism: PMFs antagonizing limonin on cells expressing the receptor; conditions: limonin 25 μM
T1 construct: expressed in transfected cells; host or cells: cells expressing a promiscuous G protein (G16g44)
T1 sequence (P59541 1-319 F252L): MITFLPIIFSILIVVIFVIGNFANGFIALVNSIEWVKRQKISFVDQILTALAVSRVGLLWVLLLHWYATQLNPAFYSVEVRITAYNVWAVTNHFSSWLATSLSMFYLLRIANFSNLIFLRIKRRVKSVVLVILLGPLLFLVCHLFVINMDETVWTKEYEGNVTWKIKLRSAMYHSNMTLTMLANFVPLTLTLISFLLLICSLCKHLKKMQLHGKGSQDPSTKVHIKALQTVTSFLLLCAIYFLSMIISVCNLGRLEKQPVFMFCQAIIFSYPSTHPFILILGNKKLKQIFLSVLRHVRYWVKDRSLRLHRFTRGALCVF
Protocol: (§1) Cells expressing a promiscuous G protein (G16g44) were transfected using TransIT-293 (Mirus) with expression vectors encoding 22 functional biter receptor cDNAs, with one receptor per transfection. The cells were transfected directly in 384-well format high-density plates and incubated for 28 hours. Later, cells were loaded with the Ca-specific dye Fluo4-AM. After an incubation of 60 minutes, excess dye is washed off, and cells are stimulated with respective bitter agonists while simultaneously recording changes in intracellular fluorescence using a FLIPR instrument. Bitter agonist and responding receptors were identified and respective stable bitter receptor cell lines were then used in the same assay to perform full dose-response analysis with the respective bitter agonists.
Certain PMFs were tested for their ability to antagonize binding of limonin to cells expressing the polypeptide identified herein as SEQ ID NO: 2.

[2] = biological target: T2, SEQ ID NO: 1 (hT2R80) (Homo sapiens, UniProt Q9NYW2); assay: Bitter receptor identification, FLIPR calcium assay with bitter agonist; conditions: concentration range of 12.5 μM to 50 μM; cells expressing SEQ ID NO: 1
T2 construct: expressed in transfected cells; host or cells: cells expressing a promiscuous G protein (G16g44)
T2 sequence (Q9NYW2 1-309): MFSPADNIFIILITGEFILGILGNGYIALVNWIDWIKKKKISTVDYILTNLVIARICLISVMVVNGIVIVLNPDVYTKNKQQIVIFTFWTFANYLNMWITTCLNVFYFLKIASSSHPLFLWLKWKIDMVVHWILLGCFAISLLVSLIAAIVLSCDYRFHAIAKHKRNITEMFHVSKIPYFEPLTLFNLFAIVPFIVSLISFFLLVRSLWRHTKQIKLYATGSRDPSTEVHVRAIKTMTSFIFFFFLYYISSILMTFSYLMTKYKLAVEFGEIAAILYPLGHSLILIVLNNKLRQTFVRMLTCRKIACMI
Protocol: as §1, with “([…])” for “(G16g44)”, “agonists. The above protocol was carried out using limonin as a non-limiting example of a bitter agonist. […] The five expressed receptor proteins correspond to the amino acid sequences identified herein as SEQ ID NO: 1, 2, 3, 4, and 5.” for “agonists.”

[3] = biological target: T3, SEQ ID NO: 2 (hT2R44) (Homo sapiens, UniProt P59541, F252L); assay: as above; conditions: concentration range of 12.5 μM to 50 μM; cells expressing SEQ ID NO: 2
T3 construct: expressed in transfected cells; host or cells: cells expressing a promiscuous G protein (G16g44)
T3 sequence (P59541 1-319 F252L): T1 sequence (P59541 1-319 F252L)
Protocol: as §1, with “([…])” for “(G16g44)”, “agonists. The above protocol was carried out using limonin as a non-limiting example of a bitter agonist. […] The five expressed receptor proteins correspond to the amino acid sequences identified herein as SEQ ID NO: 1, 2, 3, 4, and 5.” for “agonists.”

[4] = biological target: T4, SEQ ID NO: 3 (hT2R51) (Homo sapiens, UniProt P59533, A49P/I296V); assay: as above; conditions: concentration range of 12.5 μM to 50 μM; cells expressing SEQ ID NO: 3
T4 construct: expressed in transfected cells; host or cells: cells expressing a promiscuous G protein (G16g44)
T4 sequence (P59533 1-333 A49P/I296V): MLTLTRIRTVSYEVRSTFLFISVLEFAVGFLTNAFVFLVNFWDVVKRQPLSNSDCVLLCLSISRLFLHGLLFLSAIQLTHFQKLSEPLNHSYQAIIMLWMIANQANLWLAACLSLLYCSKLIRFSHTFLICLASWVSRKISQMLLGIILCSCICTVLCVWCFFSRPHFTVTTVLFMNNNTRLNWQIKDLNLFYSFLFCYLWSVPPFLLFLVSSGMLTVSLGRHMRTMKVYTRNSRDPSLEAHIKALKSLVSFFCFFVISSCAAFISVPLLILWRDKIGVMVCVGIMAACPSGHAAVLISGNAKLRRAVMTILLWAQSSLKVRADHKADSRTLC
Protocol: as §1, with “([…])” for “(G16g44)”, “agonists. The above protocol was carried out using limonin as a non-limiting example of a bitter agonist. […] The five expressed receptor proteins correspond to the amino acid sequences identified herein as SEQ ID NO: 1, 2, 3, 4, and 5.” for “agonists.”

[5] = biological target: T5, SEQ ID NO: 4 (hT2R65) (Homo sapiens, UniProt P59542, V32I); assay: as above; conditions: concentration range of 12.5 μM to 50 μM; cells expressing SEQ ID NO: 4
T5 construct: expressed in transfected cells; host or cells: cells expressing a promiscuous G protein (G16g44)
T5 sequence (P59542 1-299 V32I): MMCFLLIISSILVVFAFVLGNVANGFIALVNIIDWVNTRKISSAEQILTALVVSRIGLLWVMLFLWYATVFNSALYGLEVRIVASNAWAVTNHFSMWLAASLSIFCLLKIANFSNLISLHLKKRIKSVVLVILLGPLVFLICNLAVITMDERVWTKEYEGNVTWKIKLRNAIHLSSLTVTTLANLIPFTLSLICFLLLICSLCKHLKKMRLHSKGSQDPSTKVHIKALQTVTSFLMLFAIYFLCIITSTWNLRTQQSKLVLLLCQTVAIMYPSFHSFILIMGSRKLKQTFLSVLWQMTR
Protocol: as §1, with “([…])” for “(G16g44)”, “agonists. The above protocol was carried out using limonin as a non-limiting example of a bitter agonist. […] The five expressed receptor proteins correspond to the amino acid sequences identified herein as SEQ ID NO: 1, 2, 3, 4, and 5.” for “agonists.”

[6] = biological target: T6, SEQ ID NO: 5 (hT2R75) (Homo sapiens, UniProt P59540); assay: as above; conditions: concentration range of 12.5 μM to 50 μM; cells expressing SEQ ID NO: 5
T6 construct: expressed in transfected cells; host or cells: cells expressing a promiscuous G protein (G16g44)
T6 sequence (P59540 1-309): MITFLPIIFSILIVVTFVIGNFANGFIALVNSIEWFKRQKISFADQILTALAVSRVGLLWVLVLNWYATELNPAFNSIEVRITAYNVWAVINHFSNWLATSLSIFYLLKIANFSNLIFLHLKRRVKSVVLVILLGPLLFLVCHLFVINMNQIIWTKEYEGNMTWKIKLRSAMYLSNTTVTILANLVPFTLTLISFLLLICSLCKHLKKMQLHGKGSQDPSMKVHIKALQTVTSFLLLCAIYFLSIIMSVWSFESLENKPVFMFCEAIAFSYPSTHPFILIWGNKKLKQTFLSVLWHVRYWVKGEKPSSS
Protocol: as §1, with “([…])” for “(G16g44)”, “agonists. The above protocol was carried out using limonin as a non-limiting example of a bitter agonist. […] The five expressed receptor proteins correspond to the amino acid sequences identified herein as SEQ ID NO: 1, 2, 3, 4, and 5.” for “agonists.”

[7] = antagonist 200 μM (no antagonist: 98)

% Limonin Activation [1, 7]: 74%
Structure (SMILES): COc1ccc(-c2cc(=O)c3c(OC)c(OC)c(OC)c(OC)c3o2)cc1OC

% Limonin Activation [1, 7]: 79%
Structure (SMILES): COc1ccc(-c2oc3c(OC)c(OC)c(OC)c(OC)c3c(=O)c2OC)cc1OC

% Limonin Activation [1, 7]: 70%
Structure (SMILES): COc1ccc(-c2cc(=O)c3c(OC)c(OC)c(OC)cc3o2)cc1OC

% Limonin Activation ([1]; antagonist 100 μM (no antagonist: 98)): 77%
Structure (SMILES): COc1ccc(-c2oc3cc(OC)c(OC)c(OC)c3c(=O)c2OC)cc1OC

Further lines, the molecule ahead of its results:

Structure (SMILES): CC1(C)O[C@H]2CC(=O)OC[C@]23[C@H]2CC[C@@]4(C)[C@H](c5ccoc5)OC(=O)[C@H]5O[C@]54[C@]2(C)C(=O)C[C@@H]13 [limonin]
dose response of receptor to bitter agonist [2]: positive dose response
dose response of receptor to bitter agonist [3]: positive dose response
dose response of receptor to bitter agonist [4]: positive dose response
dose response of receptor to bitter agonist [5]: positive dose response
dose response of receptor to bitter agonist [6]: positive dose response

Structure (SMILES): COc1ccc(-c2cc(=O)c3c(OC)c(OC)c(OC)c(OC)c3o2)cc1
% Limonin Activation ([1]; antagonist 50 μM (no antagonist: 98)): 76%

Structure (SMILES): COc1cc(-c2cc(=O)c3c(OC)c(OC)c(OC)cc3o2)ccc1O
% Limonin Activation [1, 7]: 64%
